According to patent US6620936B2, “9-aminoacridine derivatives and process for the preparation thereof” (Samjin Pharmaceutical Co., Ltd., priority 1998, dated 2003):
Values after ≈ are worked out from the molar mass of the structure shown.

Experiments:
XF-498 (human CNS) = assay: In vitro antitumor effect against human tumor cell lines, SRB assay; assay type: cell-based; details: 48 hours, XF-498 cells
Method: (§1) In vitro antitumor effect against human tumor cell lines.
(§2) a. Human solid tumor cell lines, A549(non-small lung cell), SKMEL-2(melanoma), HCT-15(colon), SKOV-3(ovarian) and XF-498(CNS) were cultured in 5% CO2, incubators using the RPMI 1640 media containing 10% FBS at 37° C., while with transfer-culturing successively once or twice per week. Cell cultures were dissolved in a solution of 0.25% trysin and 3 mmol CDTA PBS(−) to separate the cells sticked on the culture media.
(§3) b. 5×10^3˜2×10^4 cells were added into each well of 96-well plate and cultured in 5% CO2, incubator at 37° C. for 24 hours.
(§4) c. Each sample drug was dissolved in a little DMSO and diluted with the used medium to a prescribed concentration for experiment, while the final concentration of DMSO was adjusted below 0.5%.
(§5) d. Medium of each well cultured for 24 hours as above b. was removed by aspiration. Each 200 μl of drug samples prepared in c. was added into each well and tine wells were cultured for 48 hours. Tz (time zero) plates were collected at the point of time drugs were added.
(§6) e. According to the SRB assay method, cell fixing with TCA, staining with 0.4% SRB solution, washing with 1% acetic acid and elution of dye with 10 mmol Tris solution were carried out on Tz plates and culture-ended plates, and then, OD values were measured at 520 nm.
(§7) a. Time zero (Tz) value was determined with measuring the SRB protein value at the point of time drugs were added.
(§8) b. Control value (C) was determined with the OD value of an well untreated with drug.
(§9) c. Drug-treated test value (T) was determined with the OD value of drug-treated well.
(§10) d. Effects of drugs were estimated with growth stimulation, net growth inhibition and net killing calculated from Tz, C and T values.
(§11) e. If T≧Tz, cellular response function was calculated by 100×(T−Tz)/(C−Tz), and, if T≦Tz, by 100×(T−Tz)/Tz.

SKOV-3 (human ovarian) = assay: as above; assay type: cell-based; details: 48 hours, SK-OV-3 cells
Method: as §1, §2, §3, §4, §5, §6, §7, §8, §9, §10, §11

SKMEL-2 (human melanoma) = assay: as above; assay type: cell-based; details: 48 hours, SK-MEL-2 cells
Method: as §1, §2, §3, §4, §5, §6, §7, §8, §9, §10, §11

HCT-15 (human colon) = assay: as above; assay type: cell-based; details: 48 hours, HCT 15 cells
Method: as §1, §2, §3, §4, §5, §6, §7, §8, §9, §10, §11

[1] = tested on: A549 (human non-small lung cell); assay: as above; assay type: cell-based; details: 48 hours, A549 cells
Method: as §1
A. Tumor cell lines : A549 (human non-small lung cell)
as §2, §3, §4, §5, §6, §7, §8, §9, §10, §11

Topoisomerase II = assay: Inhibition effects against the Topoisomerase II activities (DNA relaxation assay, DNA cleavage assay); assay type: biochemical; details: supercoiled pBR322 DNA substrate, 30 minutes at 37° C.
Method: Inhibition effects against the Topoisomerase II activities
The present compounds were tested for inhibition of Topoisomerase II activity by means of the relaxation assay using supercoiled pBR322 DNA as the substrate. Topo II and a sample inhibitor were added to a reaction system (50 mmol Tris-HCl, pH 7.5, 50 mmol KCl, 20 mmol MgCl2, 0.5 mmol EDTA, 2 mmol ATP, 60 μg/ml BSA) containing supercoiled pBR322 DNA and reacted for 30 minutes at 37° C. Then, a quarter by volume of Stop buffer (5% SDS, 50 mmol EDTA, 30% glycerol, 0.1 mg/ml xylene cyanol, 0.1 mg/ml BPB) was added to the reaction system to stop the reaction. The resulting product went through electrophoresis on 0.7% agarose gel and was stained by ethidium bromide solution. Mobility of DNA was measured under ultraviolet rays.
Topo II and a sample inhibitor were added to cleavage buffer (30 mmol Tris-HCl, pH 7.5, 60 mmol KCl, 10 mmol MgCl2, 15 mmol β-mercaptoethanol, 30 μg /ml BSA) containing supercoiled pBR322 DNA and allowed to react for 30 minutes at 37° C. Then, […] by 1% was added to the reaction system to stop the reaction. Then, proteinase K was added thereto up to the concentration of 50 μg/ml and allowed to react for 30 minutes at 56° C. The reaction product was treated with phenol/chloroform to purify DNA, and the obtained DNA was loaded on agarose gel electrophoresis, transferred to nitrocellulose membrane and hybridized with probe DNA labelled with radioisotope. Then, the nitrocellulose membrane was covered with an X-ray film and exposed to be sensitized and developed, whereby the degree of cleavage of DNA was measured.

[2] = tested on: P388 (mouse lymphoid neoplasma cell); assay: In vitro antitumor effects against animal leukemia cells, dye exclusion assay; assay type: cell-based; details: 48 hours, trypan blue dye exclusion, read-out: P388, concentration showing 50% cell growth inhibition (IC50)
Method: In vitro antitumor effects against animal leukemia cells.
Tumor cell lines: P388 (mouse lymphoid neoplasma cell)
B. Method: Dye Exclusion Assay.
1) The concentration of P388 cells being cultured in RPMI 1640 media containing 10% FBS was adjusted to 1×10^6 cells/ml.
2) Each sample drug of a concentration diluted in the ratio of log dose was added into cell culture media and cultured at 37° C. for 48 hours in […] incubator, and then viable cell number was measured by dye exclusion test using trypan blue.

[3] = Acute toxicity test (LD50), Litchfield-Wilcoxon method; details: mouse, in vivo, ip; male ICR mice, observed 14 days
Method: Acute Toxicity Test (LD50):
a) Method: Litchfield-Wilcoxon Method.
6-week-old ICR mice(male 30±2.0 g) were fed freely with solid feed and water at room temperature, 23±1° C. and at humidity 60±5%. Sample drugs were injected into the abdominal cavities of mice. Each group comprised 6 mice. Observed during 14 days, external appearances and life or death thereof were recorded, and also, visible lesions were observed from dead mice by dissection. LD50 value was calculated by Litchfield-wilcoxon method.

| Compound | ED50 XF-498 (XF-498 (human CNS)) | ED50 SK-OV-3 (SKOV-3 (human ovarian)) | ED50 SK-MEL-2 (SKMEL-2 (human melanoma)) | ED50 HCT 15 (HCT-15 (human colon)) | ED50 A 549 [1] | IC50 (μg/ml), inhibition of Topoisomerase II activity (Topoisomerase II) | IC50 [2] | LD50 at 14 days [3] |
| --- | --- | --- | --- | --- | --- | --- | --- | --- |
| N.N.[Cl][Pt][Cl] [Cisplatin, reference compound] | 0.77 µg/mL | 0.71 µg/mL | 0.71 µg/mL | 3.03 µg/mL | 0.81 µg/mL | – | – | – |
| Nc1cc(COC(=O)Nc2ccccc2)cc(Nc2c3ccccc3nc3ccccc23)c1 [Example 1, [3-(acridin-9-yl)amino-5-amino]benzyl N-phenylcarbamate] | 0.44 µg/mL (≈ 1.01 µM) | 1.15 µg/mL (≈ 2.65 µM) | 0.49 µg/mL (≈ 1.13 µM) | 0.57 µg/mL (≈ 1.31 µM) | 0.96 µg/mL (≈ 2.21 µM) | 1 µg/mL | 0.9 µg/mL (≈ 2.07 µM) | – |
| COc1cccc(NC(=O)OCc2cc(N)cc(Nc3c4ccccc4nc4ccccc34)c2)c1 [Example 2, [3-(acridin-9-yl)amino-5-amino]benzyl N-(3-methoxyphenyl)carbamate] | 0.71 µg/mL (≈ 1.53 µM) | 0.68 µg/mL (≈ 1.46 µM) | – | 0.97 µg/mL (≈ 2.09 µM) | – | 3 µg/mL | – | – |
| COc1cc(NC(=O)OCc2cc(N)cc(Nc3c4ccccc4nc4ccccc34)c2)cc(OC)c1 [Example 3, [3-(acridin-9-yl)amino-5-amino]benzyl N-(3,5-dimethoxyphenyl)carbamate] | – | – | – | – | – | 3 µg/mL | – | – |
| COc1cc(NC(=O)OCc2cc(N)cc(Nc3c4ccccc4nc4ccccc34)c2)cc(OC)c1OC [Example 4, [3-(acridin-9-yl)amino-5-amino]benzyl N-(3,4,5-trimethoxyphenyl) carbamate] | 0.23 µg/mL (≈ 0.438 µM) | 0.19 µg/mL (≈ 0.362 µM) | 0.20 µg/mL (≈ 0.381 µM) | 0.24 µg/mL (≈ 0.458 µM) | 0.19 µg/mL (≈ 0.362 µM) | 5 µg/mL | – | – |
| Cc1cc(C)cc(NC(=O)OCc2cc(N)cc(Nc3c4ccccc4nc4ccccc34)c2)c1 [Example 6, [3-(acridin-9-yl)amino-5-amino]benzyl N-(3,5-dimethylphenyl) carbamate] | 0.37 µg/mL (≈ 0.8 µM) | 0.36 µg/mL (≈ 0.778 µM) | 0.40 µg/mL (≈ 0.865 µM) | 0.33 µg/mL (≈ 0.713 µM) | 0.72 µg/mL (≈ 1.56 µM) | 3 µg/mL | 0.8 µg/mL (≈ 1.73 µM) | – |
| Nc1cc(COC(=O)Nc2cc(F)cc(F)c2)cc(Nc2c3ccccc3nc3ccccc23)c1 [Example 12, [3-(acridin-9-yl)amino-5-amino]benzyl N-(3,5-difluorophenyl) carbamate] | – | – | – | – | – | 0.5 µg/mL | 1.2 µg/mL (≈ 2.55 µM) | 150 mg/kg |
| Nc1cc(COC(=O)Nc2cccc(Cl)c2)cc(Nc2c3ccccc3nc3ccccc23)c1 [Example 14, [3-(acridin-9-yl)amino-5-amino]benzyl N-(3-chlorophenyl) carbamate] | – | – | – | – | – | 1 µg/mL | – | – |
| COc1cc(NC(=S)OCc2cc(N)cc(Nc3c4ccccc4nc4ccccc34)c2)cc(OC)c1 [Example 18, [3-(acridin-9-yl)amino-5-amino]benzyl N-(3,5-dimethoxyphenyl)thiocarbamate] | – | – | – | – | – | 3 µg/mL | – | – |
| COc1cc(NC(=S)OCc2cc(N)cc(Nc3c4ccccc4nc4ccccc34)c2)cc(OC)c1OC [Example 19, [3-(acridin-9-yl)amino-5-amino]benzyl N-(3,4,5-trimethoxyphenyl)thiocarbamate] | – | – | – | – | – | 5 µg/mL | – | – |
| COc1cccc(NC(=O)OCc2cccc(Nc3c4ccccc4nc4ccccc34)c2)c1 [Example 20, 3-(acridin-9-yl)aminobenzyl N-(3-methoxyphenyl) carbamate] | – | – | – | – | – | 3 µg/mL | – | – |
| COc1cc(NC(=O)OCc2cccc(Nc3c4ccccc4nc4ccccc34)c2)cc(OC)c1 [Example 21, 3-(acridin-9-yl)aminobenzyl N-(3,5-dimethoxyphenyl) carbamate] | – | – | – | – | – | 3 µg/mL | – | – |
| COc1cc(NC(=O)OCc2cccc(Nc3c4ccccc4nc4ccccc34)c2)cc(OC)c1OC [Example 22, 3-(acridin-9-yl)aminobenzyl N-(3,4,5-trimethoxyphenyl) carbamate] | – | – | – | – | – | 5 µg/mL | – | – |
| CC=Nc1cc(CO)cc(Nc2c3ccccc3nc3ccccc23)c1 [Example 35, 3-(acridin-9-yl)amino-5-(ethylideneamino)phenylmethanol] | – | – | – | – | – | 5 µg/mL | – | – |
| CCC=Nc1cc(CO)cc(Nc2c3ccccc3nc3ccccc23)c1 [Example 36, 3-(acridin-9-yl)amino-5-(propylideneamino)phenylmethanol] | – | – | – | – | – | 3 µg/mL | – | – |
| CCCC=Nc1cc(CO)cc(Nc2c3ccccc3nc3ccccc23)c1 [Example 37, 3-(acridin-9-yl)amino-5-(butylideneamino)phenylmethanol] | 0.36 µg/mL (≈ 0.974 µM) | 0.93 µg/mL (≈ 2.52 µM) | 0.89 µg/mL (≈ 2.41 µM) | 0.35 µg/mL (≈ 0.947 µM) | 0.90 µg/mL (≈ 2.44 µM) | 5 µg/mL | – | – |
| C[C@H](N)C(=O)Nc1cc(CO)cc(Nc2c3ccccc3nc3ccccc23)c1 [Example 45, N-[3-(acridin-9-yl)amino-5-(hydroxymethyl)phenyl](2S)-2-aminopropaneamide] | 0.88 µg/mL (≈ 2.28 µM) | 0.21 µg/mL (≈ 0.543 µM) | 0.25 µg/mL (≈ 0.647 µM) | 0.86 µg/mL (≈ 2.23 µM) | 0.01 µg/mL (≈ 0.0259 µM) | 0.5 µg/mL | – | – |
| N[C@@H](Cc1ccccc1)C(=O)Nc1cc(CO)cc(Nc2c3ccccc3nc3ccccc23)c1 [Example 46, N-[3-(acridin-9-yl)amino-5-(hydroxymethyl)phenyl](2S)-2-amino-3-phenylpropaneamide] | – | – | – | – | – | 3 µg/mL | – | – |
